According to patent US3966896A, “Radioimmunoassay for plasma renin activity” (Mallinckrodt, Inc., priority 1974, dated 1976):
“And” between values parts separate entries of the source, which are not always exact repeats. Equal values may be shown once.

Legend:
[1] = test system: antibody for angiotensin I; assay: Radioimmunoassay standard reactions: competitive binding of labeled and unlabeled angiotensin I to antibody; parameters: species or system rabbit
Experimental: Antiserum (Rabbit) 1.4 μl
A series of standard prereaction mixtures was prepared by transferring 0.1 ml aliquots of standard unlabeled angiotensin I solutions from the standard vials to a series of reaction vials. Standard prereaction mixtures were prepared using the standard solutions containing 6, 3, 2, 1, 0.8, 0.6, and 0.3 ng/ml unlabeled angiotensin I, respectively. Two blank prereaction mixtures were prepared by adding 0.1 ml pH 9.0 buffer to a reaction vial.
Reaction mixtures were prepared and radioimmunoassay commenced by adding antiserum solution (0.1 ml) to each of the base unknown, generated unknown, standard, and blank prereaction mixtures. Antiserum was withheld from one reaction vial used as a control. The reaction mixtures contained in each vial were then mixed gently on a vortex and incubated for 1 hour at 37°C. After incubation was completed, each reaction vial was taken out of the water bath, the cap removed and an anion exchange resin strip immersed in the contents of the vial. The vial was then recapped and placed on a rotator for 30 minutes at room temperature (21°-23°C.). At the end of 30 minutes, the resin strip was removed from each vial and placed in an empty vial. Radioactivity of both the strip containing the unbound ("free") angiotensin I and the supernatant liquid containing the antibody bound ("bound") angiotensin I was counted, and the percentage bound angiotensin I was determined from the following relationship: [formula]
From the data of Tables I and II, a graph was prepared in which the percent bound angiotensin I was plotted against nanograms of unlabeled standard angiotensin I contained in the standard reaction solutions for the two sets of standard reactions. FIG. 1 is that graph. […]
Standard radioimmunoassay reactions were carried out using duplicate blanks and standard solutions respectively containing 0.03, 0.06, 0.08, 0.1, 0.2, 0.3 and 0.6 ng. unlabeled angiotensin I per ml. A control was also run in which no antiserum was added to the prereaction mixture. The procedure of Example 2 was followed, except that the temperature and period of incubation of the radioimmunoassay reaction were varied. The following combinations of time and temperature were utilized for these standard radioimmunoassay reactions: […]

angiotensinogen = assay: Plasma renin activity, as angiotensin I generation rate; format: biochemical, human
Experimental: Blood was drawn from patient three into a tube coated with EDTA and the plasma separated by centrifugation and cooled to 4°C. To one ml. of the cold plasma were added portions of 8-hydroxyquinoline inhibiting solution (10 μl) and dimercaprol inhibiting solution (10 μl). The resulting unknown plasma sample was transferred to a generation vial containing generation buffer solution and mixed.
The generation vial was placed in a water bath controlled at 37°C. and generation was carried out for 3 hours. At the end of this time, the generated unknown sample was removed from the water bath, cooled in an ice bath, and three 100 μl aliquots thereof transferred to three reaction vials to provide three generated unknown radioimmunoassay prereaction mixtures containing generated plasma, human serum albumin, sodium azide preservative, HCl, and ^125 I labeled angiotensin I.
The renin activity of patient three's plasma was indicated by the angiotensin I generation rate determined from the following relationship: [formula] The factor of 30 is used because the plasma is initially diluted three-fold, and only 0.1 ml of the dilute plasma is used in the radioimmunoassay, while the angiotensin I generation rate is based on 1 ml.
Another sample of patient three's plasma was assayed in the manner described in Example 2, except that 2,2-dimethyl glutaric acid was used in place of potassium acid phthalate as the buffering component of the generation mixture. Results of radioactivity counting on the base and generated radioimmunoassay reaction mixtures obtained in the assay of this example are set forth in Table IV.
Following the procedure described in Example 2, a renin activity radioimmunoassay was conducted on the plasma of patient two. The results of radioactive counting and the percent bound antigen for the duplicate standard radioimmunoassay reaction mixture are set forth in Tables V and VI.
Another sample of patient two's plasma was assayed in the manner described in Example 4, except that 2,2-dimethylglutaric acid was used in place of potassium acid phthalate as a buffering component of the generation mixture. Results of radioactive counting on the base and generated radioimmunoassay mixtures obtained in the assay of this example are set forth in Table VIII.
A renin activity radioimmunoassay was conducted on the plasma of patient one. The procedure described in Example 2 was followed except that only one set of reactions was carried out in establishing the standard curve. Results of radioactive counting and the percent bound antigen for the standard radioimmunoassay reaction mixtures are set forth in Table IX.
Another sample of patient one's plasma was assayed in the manner described in Example 6, except that 2,2-dimethylglutaric acid was used in place of potassium acid phthalate as the buffering component of the generation mixture. Results of radioactivity counting on the base and generated radioimmunoassay reaction mixtures, together with the angiotensin I content of the ungenerated and generated samples, are set forth in Table XI.

“Angiotensin I: decapeptide formed from angiotensinogen by renin; unlabeled standard in the radioimmunoassay (DRVYIHPFHL; Angiotensin-1; UniProt P01019 25-34, looked up)” was tested, and the “% Bound labeled angiotensin I” value ([1]; 0.03 ng unlabeled angiotensin I standard, 12°C, 1 hour) was 38.3%, the “% Bound labeled angiotensin I” value ([1]; 0.03 ng unlabeled angiotensin I standard, 12°C, 5 hours) was 60.8% and the “% Bound labeled angiotensin I” value ([1]; 0.03 ng unlabeled angiotensin I standard, 20°C, 1 hour) was 46.52%. The “% Bound labeled angiotensin I” value ([1]; 0.03 ng unlabeled angiotensin I standard, 20°C, 5 hours) was 64.22%, the “% Bound labeled angiotensin I” value ([1]; 0.03 ng unlabeled angiotensin I standard, 37°C, 1 hour) was 56.33% and 55.20% and 54.06% and 54.27% and 56.75% and 54.34% and the “% Bound labeled angiotensin I” value ([1]; 0.06 ng unlabeled angiotensin I standard, 12°C, 1 hour) was 36.6%. For the same molecule, the “% Bound labeled angiotensin I” value ([1]; 0.06 ng unlabeled angiotensin I standard, 12°C, 5 hours) was 52.9%, the “% Bound labeled angiotensin I” value ([1]; 0.06 ng unlabeled angiotensin I standard, 20°C, 1 hour) was 43.88% and the “% Bound labeled angiotensin I” value ([1]; 0.06 ng unlabeled angiotensin I standard, 20°C, 5 hours) was 62.08%. The “% Bound labeled angiotensin I” value ([1]; 0.06 ng unlabeled angiotensin I standard, 37°C, 1 hour) was 50.77% and 53.62% and 49.30% and 49.16% and 52.76% and 49.86%, the “% Bound labeled angiotensin I” value ([1]; 0.08 ng unlabeled angiotensin I standard, 12°C, 1 hour) was 34.7% and the “% Bound labeled angiotensin I” value ([1]; 0.08 ng unlabeled angiotensin I standard, 12°C, 5 hours) was 50.4%. For the same molecule, the “% Bound labeled angiotensin I” value ([1]; 0.08 ng unlabeled angiotensin I standard, 20°C, 1 hour) was 37.90%, the “% Bound labeled angiotensin I” value ([1]; 0.08 ng unlabeled angiotensin I standard, 20°C, 5 hours) was 53.73% and the “% Bound labeled angiotensin I” value ([1]; 0.08 ng unlabeled angiotensin I standard, 37°C, 1 hour) was 49.01% and 48.63% and 48.16% and 48.27% and 48.93% and 45.64%. For the same molecule, the “% Bound labeled angiotensin I” value ([1]; 0.1 ng unlabeled angiotensin I standard, 12°C, 1 hour) was 34.3%, the “% Bound labeled angiotensin I” value ([1]; 0.1 ng unlabeled angiotensin I standard, 12°C, 5 hours) was 47.5% and the “% Bound labeled angiotensin I” value ([1]; 0.1 ng unlabeled angiotensin I standard, 20°C, 1 hour) was 40.23%. For the same molecule, the “% Bound labeled angiotensin I” value ([1]; 0.1 ng unlabeled angiotensin I standard, 20°C, 5 hours) was 50.27%, the “% Bound labeled angiotensin I” value ([1]; 0.1 ng unlabeled angiotensin I standard, 37°C, 1 hour) was 45.93% and 45.19% and 45.21% and 43.12% and 46.72% and 42.96% and the “% Bound labeled angiotensin I” value ([1]; 0.2 ng unlabeled angiotensin I standard, 12°C, 1 hour) was 27.2%. The “% Bound labeled angiotensin I” value ([1]; 0.2 ng unlabeled angiotensin I standard, 12°C, 5 hours) was 34.1%, the “% Bound labeled angiotensin I” value ([1]; 0.2 ng unlabeled angiotensin I standard, 20°C, 1 hour) was 31.21% and the “% Bound labeled angiotensin I” value ([1]; 0.2 ng unlabeled angiotensin I standard, 20°C, 5 hours) was 32.23%. The “% Bound labeled angiotensin I” value ([1]; 0.2 ng unlabeled angiotensin I standard, 37°C, 1 hour) was 35.75% and 35.05% and 29.50% and 28.39% and 34.97% and 30.79%, the “% Bound labeled angiotensin I” value ([1]; 0.3 ng unlabeled angiotensin I standard, 12°C, 1 hour) was 25.8% and the “% Bound labeled angiotensin I” value ([1]; 0.3 ng unlabeled angiotensin I standard, 12°C, 5 hours) was 24.4%. The “% Bound labeled angiotensin I” value ([1]; 0.3 ng unlabeled angiotensin I standard, 20°C, 1 hour) was 23.71%, the “% Bound labeled angiotensin I” value ([1]; 0.3 ng unlabeled angiotensin I standard, 20°C, 5 hours) was 25.25% and the “% Bound labeled angiotensin I” value ([1]; 0.3 ng unlabeled angiotensin I standard, 37°C, 1 hour) was 29.47% and 31.32% and 28.06% and 26.30% and 27.55% and 27.52%. For the same molecule, the “% Bound labeled angiotensin I” value ([1]; 0.6 ng unlabeled angiotensin I standard, 12°C, 1 hour) was 15.9%, the “% Bound labeled angiotensin I” value ([1]; 0.6 ng unlabeled angiotensin I standard, 12°C, 5 hours) was 16.6% and the “% Bound labeled angiotensin I” value ([1]; 0.6 ng unlabeled angiotensin I standard, 20°C, 1 hour) was 15.54%. The “% Bound labeled angiotensin I” value ([1]; 0.6 ng unlabeled angiotensin I standard, 20°C, 5 hours) was 15.0% and the “% Bound labeled angiotensin I” value ([1]; 0.6 ng unlabeled angiotensin I standard, 37°C, 1 hour) was 17.21% and 16.50% and 17.98% and 17.40% and 17.61% and 16.72%.

B1: Renin: proteolytic enzyme secreted by juxtaglomerular cells in the kidney (protein, UniProt P00797 67-406, looked up)
Renin: LTLGNTTSSVILTNYMDTQYYGEIGIGTPPQTFKVVFDTGSSNVWVPSSKCSRLYTACVYHKLFDASDSSSYKHNGTELTLRYSTGTVSGFLSQDIITVGGITVTQMFGEVTEMPALPFMLAEFDGVVGMGFIEQAIGRVTPIFDNIISQGVLKEDVFSFYYNRDSENSQSLGGQIVLGGSDPQHYEGNFHYINLIKTGVWQIQMKGVSVGSSTLLCEDGCLALVDTGASYISGSTSSIEKLMEALGAKKRLFDYVVKCNEGPTLPDISFHLGGKEYTLTSADYVFQESYSSKKLCTLAIHAMDIPPPTGPTWALGATFIRKFYTEFDRRNNRIGFALAR
Molecule B1 has a Renin activity (angiotensinogen; patient one plasma, glutarate generation buffer) of 1.31 ng/mL/h, a Renin activity (angiotensinogen; patient one plasma, phthalate generation buffer) of 0.849 ng/mL/h and a Renin activity (angiotensinogen; patient three plasma, glutarate generation buffer) of 0.7 ng angiotensin I/ml/hr. It also gave a Renin activity (angiotensinogen; patient three plasma, phthalate generation buffer) of 0.42 ng/mL/h, a Renin activity (angiotensinogen; patient two plasma, glutarate generation buffer) of 2.91 ng/mL/h and a Renin activity (angiotensinogen; patient two plasma, phthalate generation buffer) of 1.41 ng Angiotensin I/ml/hr.
